Reference: the supplement of paper PMC11451515

Test system: NOMO1
Experiment: cell viability relative to DMSO control; higher = less cytotoxic
Conditions: 48 h
Procedure, shortened: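 In 1536-well plates, 5 μl of leukemia cells were seeded per well: 500 cells/well for NOMO1 or SEM and 1000 cells/well for P12-Ichikawa. Each line had first been adapted for at least four passages in each medium. Library compounds in DMSO were pin-dosed at 11 threefold concentrations between 47 μM and 0.79 nM, and CellTiter-Glo One luminescence was read after 48 h at 37°C. Viability is a per-plate percentage relative to DMSO wells, with cell-free wells as background.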

[1] = HPLM + 10% dialyzed FBS, 0.000781 µM
[2] = HPLM + 10% dialyzed FBS, 0.00234 µM
[3] = HPLM + 10% dialyzed FBS, 0.00702 µM
[4] = HPLM + 10% dialyzed FBS, 0.0211 µM
[5] = HPLM + 10% dialyzed FBS, 0.0632 µM
[6] = HPLM + 10% dialyzed FBS, 0.19 µM
[7] = HPLM + 10% dialyzed FBS, 0.569 µM
[8] = HPLM + 10% dialyzed FBS, 1.71 µM
[9] = HPLM + 10% dialyzed FBS, 5.12 µM
[10] = HPLM + 10% dialyzed FBS, 15.4 µM
[11] = HPLM + 10% dialyzed FBS, 46.1 µM
[12] = RPMI 5 mM glucose + 10% FBS, 0.000781 µM
[13] = RPMI 5 mM glucose + 10% FBS, 0.00234 µM
[14] = RPMI 5 mM glucose + 10% FBS, 0.00702 µM
[15] = RPMI 5 mM glucose + 10% FBS, 0.0211 µM
[16] = RPMI 5 mM glucose + 10% FBS, 0.0632 µM
[17] = RPMI 5 mM glucose + 10% FBS, 0.19 µM
[18] = RPMI 5 mM glucose + 10% FBS, 0.569 µM
[19] = RPMI 5 mM glucose + 10% FBS, 1.71 µM
[20] = RPMI 5 mM glucose + 10% FBS, 5.12 µM
[21] = RPMI 5 mM glucose + 10% FBS, 15.4 µM
[22] = RPMI 5 mM glucose + 10% FBS, 46.1 µM
[23] = RPMI 5 mM glucose + 10% dialyzed FBS, 0.000781 µM
[24] = RPMI 5 mM glucose + 10% dialyzed FBS, 0.00234 µM
[25] = RPMI 5 mM glucose + 10% dialyzed FBS, 0.00702 µM
[26] = RPMI 5 mM glucose + 10% dialyzed FBS, 0.0211 µM
[27] = RPMI 5 mM glucose + 10% dialyzed FBS, 0.0632 µM
[28] = RPMI 5 mM glucose + 10% dialyzed FBS, 0.19 µM
[29] = RPMI 5 mM glucose + 10% dialyzed FBS, 0.569 µM
[30] = RPMI 5 mM glucose + 10% dialyzed FBS, 1.71 µM
[31] = RPMI 5 mM glucose + 10% dialyzed FBS, 5.12 µM
[32] = RPMI 5 mM glucose + 10% dialyzed FBS, 15.4 µM
[33] = RPMI 5 mM glucose + 10% dialyzed FBS, 46.1 µM

Structure (SMILES)	cell viability [1]	cell viability [2]	cell viability [3]	cell viability [4]	cell viability [5]	cell viability [6]	cell viability [7]	cell viability [8]	cell viability [9]	cell viability [10]	cell viability [11]	cell viability [12]	cell viability [13]	cell viability [14]	cell viability [15]	cell viability [16]	cell viability [17]	cell viability [18]	cell viability [19]	cell viability [20]	cell viability [21]	cell viability [22]	cell viability [23]	cell viability [24]	cell viability [25]	cell viability [26]	cell viability [27]	cell viability [28]	cell viability [29]	cell viability [30]	cell viability [31]	cell viability [32]	cell viability [33]
O=C(Nc1ccncc1)C(=O)c1cn(Cc2ccc(Cl)cc2)c2ccccc12	106%	110%	116%	105%	77.9%	38.1%	34%	32.7%	36.2%	60.6%	61.7%	95.5%	98.1%	89.3%	89.2%	100%	46.2%	26.3%	22.6%	53.7%	44.1%	61.9%	88.2%	91.2%	116%	106%	80.4%	45.4%	28.3%	34.7%	45.3%	39.7%	49.4%
Cc1n[nH]c(C)c1Cc1sc2c(c1C(=O)N1C[C@H](O)CO1)c(=O)n(C)c(=O)n2CC(C)C												107%	105%	102%	100%	102%	102%	109%	99.1%	93.9%	106%	109%	105%	109%	117%	102%	116%	104%	115%	122%	113%	119%	99.7%
O=C(O)CCc1ccc(NCc2cccc(Oc3ccccc3)c2)cc1	97.4%	105%	134%	132%	119%	96.9%	114%	111%	122%	117%	141%	85.8%	99.2%	108%	102%	119%	111%	105%	102%	109%	103%	123%	82.6%	103%	95.1%	92.5%	105%	105%	103%	98.6%	111%	119%	104%
CN1\C(=C(O)/C2=C(C=C(Cl)S2)[S+]1([O-])=O)C(=O)NC3=NC=CC=C3	138%	112%	116%	125%	119%	111%	132%	103%	125%	123%	108%	109%	108%	110%	105%	119%	128%	126%	109%	108%	121%	111%	115%	101%	126%	120%	131%	126%	123%	118%	112%	116%	114%
O=C(Nc1cccc2c(=O)cc(-c3nnn[nH]3)oc12)c1ccc(OCCCCc2ccccc2)cc1	75.4%	80.8%	104%	107%	100%	110%	94.1%	102%	95%	83.9%	8.37%	73.4%	81.2%	85.2%	84.6%	84.4%	93.7%	90.1%	88.6%	79%	81.5%	10.5%	82.8%	95.1%	91.7%	97.5%	94.1%	88.9%	94.4%	83.3%	80.3%	73.7%	22.8%
CCCCC(F)(F)[C@@]1(O)CC[C@H]2[C@@H](CC(=O)[C@@H]2CCCCCCC(=O)O)O1												123%	123%	126%	115%	118%	117%	115%	108%	121%	111%	103%											
COC(=O)[C@@H]1CC2=CC(=O)CC[C@]2(C)[C@@]23O[C@@H]2C[C@@]2(C)[C@@H](CC[C@@]24CCC(=O)O4)[C@H]13	93.6%	115%	107%	121%	116%	133%	122%	136%	124%	123%	119%	95.3%	91.4%	112%	106%	104%	110%	116%	105%	109%	102%	112%	105%	121%	113%	121%	110%	108%	123%	141%	125%	116%	120%
c1cc(N[C@@H]2CCNC2)nc(-c2cnc3ccc(-c4cn[nH]c4)cn23)c1	133%	119%	124%	137%	134%	139%	127%	128%	132%	102%	91.9%	116%	126%	124%	133%	137%	125%	120%	125%	128%	111%	100%											
CNCCN(C)Cc1c[nH]nc1-c1ccc(O[C@H]2C[C@H](OCCC3CCOCC3)C2)cc1	115%	110%	129%	150%	136%	156%	133%	128%	114%	103%	121%	126%	123%	122%	132%	149%	141%	135%	131%	141%	148%	132%	119%	122%	140%	143%	151%	130%	147%	147%	144%	141%	124%
